Laboratory results published in patent US20100267561A1, “HERBICIDAL PYRIDAZINONE DERIVATIVES” (priority 2007, published 2010).

Experiments:
Test in all cases: Test E pre-/postemergence plant response
Type in all cases: in vivo
[1] = test system: johnsongrass (Sorghum halepense); details: scale 0 to 100
In short: (§1)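 Plants scored visually versus controls on a 0–100 scale (100 = complete control) 14 to 21 days after treatment in the greenhouse. Test chemicals in a surfactant-containing non-phytotoxic solvent were applied to soil preemergence or to 1- to 4-leaf plants, 2–18 cm tall.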

[2] = test system: common chickweed (Stellaria media); details: Postemergence, scale 0 to 100
In short: as §1

[3] = test system: common purslane (Portulaca oleracea); details: scale 0 to 100
In short: as §1

[4] = test system: goosegrass (Eleusine indica); details: scale 0 to 100
In short: as §1

[5] = test system: large crabgrass (Digitaria sanguinalis); details: scale 0 to 100
In short: as §1

[6] = test system: dallisgrass (Paspalum dilatatum); details: scale 0 to 100
In short: as §1

[7] = test system: bermudagrass (Cynodon dactylon); details: scale 0 to 100
In short: as §1

[8] = test system: black mustard (Brassica nigra); details: scale 0 to 100
In short: as §1

[9] = test system: barnyardgrass (Echinochloa crus-galli); details: scale 0 to 100
In short: as §1

[10] = test system: green foxtail (Setaria viridis); details: scale 0 to 100
In short: as §1

[11] = test system: quackgrass (Elytrigia repens); details: scale 0 to 100
In short: as §1

[12] = test system: surinam grass (Brachiaria decumbens); details: scale 0 to 100
In short: as §1

[13] = test system: southern (S.) sandbur (Cenchrus echinatus); details: scale 0 to 100
In short: as §1

Cc1cc(-c2ccc(Cl)cc2)nn1-c1c(OS(C)(=O)=O)cnn(C)c1=O [Compound 36]
0: Plant response rating, Chickweed ([2]; 8 g ai/ha) | Plant response rating, Chickweed ([2]; 16 g ai/ha) | Plant response rating, Purslane ([3]; 16 g ai/ha, Preemergence) | Plant response rating, Purslane ([3]; 31 g ai/ha, Preemergence) | Plant response rating, Purslane ([3]; 62 g ai/ha, Preemergence) | Plant response rating, Purslane ([3]; Postemergence, 8 g ai/ha) | Plant response rating, Purslane ([3]; Postemergence, 16 g ai/ha) | Plant response rating, Purslane ([3]; Postemergence, 31 g ai/ha) | Plant response rating, Purslane ([3]; Postemergence, 62 g ai/ha) | Plant response rating, Goosegrass ([4]; Postemergence, 8 g ai/ha) | Plant response rating, Dallisgrass ([6]; Postemergence, 8 g ai/ha) | Plant response rating, Mustard, Black ([8]; 8 g ai/ha, Preemergence) | Plant response rating, Mustard, Black ([8]; 16 g ai/ha, Preemergence) | Plant response rating, Mustard, Black ([8]; 31 g ai/ha, Preemergence) | Plant response rating, Mustard, Black ([8]; 62 g ai/ha, Preemergence) | Plant response rating, Mustard, Black ([8]; Postemergence, 8 g ai/ha) | Plant response rating, Mustard, Black ([8]; Postemergence, 16 g ai/ha) | Plant response rating, Mustard, Black ([8]; Postemergence, 31 g ai/ha) | Plant response rating, Mustard, Black ([8]; Postemergence, 62 g ai/ha) | Plant response rating, Quackgrass ([11]; Postemergence, 8 g ai/ha) | Plant response rating, Quackgrass ([11]; Postemergence, 16 g ai/ha)
70: Plant response rating, Crabgrass, Large ([5]; Postemergence, 16 g ai/ha) | Plant response rating, Bermudagrass ([7]; Postemergence, 31 g ai/ha) | Plant response rating, Quackgrass ([11]; 62 g ai/ha, Preemergence)
100: Plant response rating, Goosegrass ([4]; 62 g ai/ha, Preemergence) | Plant response rating, Bermudagrass ([7]; 16 g ai/ha, Preemergence) | Plant response rating, Bermudagrass ([7]; 31 g ai/ha, Preemergence) | Plant response rating, Bermudagrass ([7]; 62 g ai/ha, Preemergence) | Plant response rating, Barnyardgrass ([9]; 62 g ai/ha, Preemergence) | Plant response rating, Barnyardgrass ([9]; Postemergence, 62 g ai/ha) | Plant response rating, Foxtail, Green ([10]; 62 g ai/ha, Preemergence) | Plant response rating, Surinam Grass ([12]; 31 g ai/ha, Preemergence) | Plant response rating, Surinam Grass ([12]; 62 g ai/ha, Preemergence) | Plant response rating, Surinam Grass ([12]; Postemergence, 62 g ai/ha) | Plant response rating, Sandbur, S. ([13]; 31 g ai/ha, Preemergence) | Plant response rating, Sandbur, S. ([13]; 62 g ai/ha, Preemergence)
75: Plant response rating, Johnsongrass ([1]; 16 g ai/ha, Preemergence) | Plant response rating, Johnsongrass ([1]; Postemergence, 31 g ai/ha) | Plant response rating, Goosegrass ([4]; Postemergence, 62 g ai/ha) | Plant response rating, Crabgrass, Large ([5]; Postemergence, 31 g ai/ha) | Plant response rating, Dallisgrass ([6]; 31 g ai/ha, Preemergence) | Plant response rating, Bermudagrass ([7]; 8 g ai/ha, Preemergence) | Plant response rating, Foxtail, Green ([10]; Postemergence, 31 g ai/ha) | Plant response rating, Foxtail, Green ([10]; Postemergence, 62 g ai/ha)
50: Plant response rating, Johnsongrass ([1]; Postemergence, 16 g ai/ha) | Plant response rating, Dallisgrass ([6]; Postemergence, 62 g ai/ha) | Plant response rating, Barnyardgrass ([9]; Postemergence, 8 g ai/ha) | Plant response rating, Barnyardgrass ([9]; Postemergence, 16 g ai/ha) | Plant response rating, Foxtail, Green ([10]; Postemergence, 16 g ai/ha) | Plant response rating, Quackgrass ([11]; 31 g ai/ha, Preemergence)
85: Plant response rating, Johnsongrass ([1]; 31 g ai/ha, Preemergence) | Plant response rating, Sandbur, S. ([13]; Postemergence, 62 g ai/ha)
80: Plant response rating, Crabgrass, Large ([5]; Postemergence, 62 g ai/ha) | Plant response rating, Barnyardgrass ([9]; 8 g ai/ha, Preemergence) | Plant response rating, Surinam Grass ([12]; Postemergence, 31 g ai/ha) | Plant response rating, Sandbur, S. ([13]; Postemergence, 31 g ai/ha)
98: Plant response rating, Goosegrass ([4]; 16 g ai/ha, Preemergence) | Plant response rating, Goosegrass ([4]; 31 g ai/ha, Preemergence) | Plant response rating, Crabgrass, Large ([5]; 31 g ai/ha, Preemergence) | Plant response rating, Crabgrass, Large ([5]; 62 g ai/ha, Preemergence) | Plant response rating, Dallisgrass ([6]; 62 g ai/ha, Preemergence)
65: Plant response rating, Crabgrass, Large ([5]; Postemergence, 8 g ai/ha) | Plant response rating, Surinam Grass ([12]; Postemergence, 8 g ai/ha) | Plant response rating, Surinam Grass ([12]; Postemergence, 16 g ai/ha) | Plant response rating, Sandbur, S. ([13]; Postemergence, 16 g ai/ha)
95: Plant response rating, Johnsongrass ([1]; 62 g ai/ha, Preemergence) | Plant response rating, Johnsongrass ([1]; Postemergence, 62 g ai/ha) | Plant response rating, Crabgrass, Large ([5]; 16 g ai/ha, Preemergence) | Plant response rating, Barnyardgrass ([9]; 16 g ai/ha, Preemergence) | Plant response rating, Barnyardgrass ([9]; 31 g ai/ha, Preemergence) | Plant response rating, Barnyardgrass ([9]; Postemergence, 31 g ai/ha) | Plant response rating, Foxtail, Green ([10]; 31 g ai/ha, Preemergence) | Plant response rating, Surinam Grass ([12]; 16 g ai/ha, Preemergence)
30: Plant response rating, Goosegrass ([4]; 8 g ai/ha, Preemergence) | Plant response rating, Dallisgrass ([6]; Postemergence, 31 g ai/ha) | Plant response rating, Quackgrass ([11]; Postemergence, 31 g ai/ha)
35: Plant response rating, Johnsongrass ([1]; Postemergence, 8 g ai/ha) | Plant response rating, Goosegrass ([4]; Postemergence, 16 g ai/ha) | Plant response rating, Crabgrass, Large ([5]; 8 g ai/ha, Preemergence) | Plant response rating, Dallisgrass ([6]; 8 g ai/ha, Preemergence) | Plant response rating, Foxtail, Green ([10]; Postemergence, 8 g ai/ha) | Plant response rating, Quackgrass ([11]; Postemergence, 62 g ai/ha)
20: Plant response rating, Dallisgrass ([6]; Postemergence, 16 g ai/ha) | Plant response rating, Quackgrass ([11]; 16 g ai/ha, Preemergence)
90: Plant response rating, Bermudagrass ([7]; Postemergence, 62 g ai/ha) | Plant response rating, Sandbur, S. ([13]; 16 g ai/ha, Preemergence)
15: Plant response rating, Foxtail, Green ([10]; 8 g ai/ha, Preemergence)
40: Plant response rating, Goosegrass ([4]; Postemergence, 31 g ai/ha) | Plant response rating, Bermudagrass ([7]; Postemergence, 8 g ai/ha) | Plant response rating, Bermudagrass ([7]; Postemergence, 16 g ai/ha) | Plant response rating, Sandbur, S. ([13]; Postemergence, 8 g ai/ha)
60: Plant response rating, Dallisgrass ([6]; 16 g ai/ha, Preemergence) | Plant response rating, Foxtail, Green ([10]; 16 g ai/ha, Preemergence)
